# Source: patent US9012153B2, “Method for screening olfactory sensibility inhibitor” (Kao Corporation, priority 2008, dated 2015)
# Assays:
# [1] = test system: isovaleric acid (malodorous substance); experiment: Olfactory masking test based on sensory evaluation with 20 specialists; type: in vivo; set-up: key: 0 = no masking effect, 5 = complete masking effect; conditions: isovaleric acid (1%) 2 μL, test substance 4 μl, vaporized and admixed in PP bottle; scale 0 (No masking effect) to 5 (Complete masking effect)
# Procedure: An olfactory masking test based on sensory evaluation was performed with 20 specialists. Isovaleric acid (1%) was used as a malodorous substance, and each of the substances listed in Table 2 was employed as a masking material. The malodorous substance (2 μL) and each test substance (4 μl) were separately absorbed by cotton balls (diameter: 1 cm), and placed in each injection syringe (capacity: 50 mL) at room temperature for 12 hours to vaporized the substance therein. Both the vaporized malodorous substance and the vaporized test substance were injected into a PP bottle (capacity: 500 mL) with a cap and admixed in the bottle. In evaluation, each specialist slightly opened the cap of the PP bottle and smelled the odor in the bottle, whereby the masking score was determined. The masking score was evaluated by the following six criteria, based on the intensity of odor in a PP bottle to which only the malodorous substance had been added.
# 1: Only slight masking effect
# 3: Satisfactory masking effect
# 4: Substantially complete masking effect
# 5: Complete masking effect
# [2] = test system: voltage-dependent cation channel; experiment: Whole-cell recording of inward current in isolated olfactory receptor cells; type: cell-based, Cynops pyrrhogaster
# Procedure: Olfactory receptor cells were isolated from newts (Cynops pyrrhogaster) through a known method (Kurahashi et al., J. Physiol. (1989), 419: 177-192) and bathed in a normal Ringer's solution. More specifically, each newt which had been hibernated in ice-water was double-pithed, and the skull thereof was cut, to thereby remove the olfactory membrane. The removed olfactory membrane was incubated in 0.1% collagenase solution at 37° C. for five minutes. After washing off collagenase, the membrane tissue was broken by means of a glass pipette, to thereby isolate olfactory cells. The normal Ringer's solution had the following composition: NaCl 110 mM, KCl 3.7 mM, CaCl2 3 mM, MgCl2 1 mM, glucose 15 mM, sodium pyruvate 1 mM, HEPES 2 mM, and Phenol Red 0.001% (w/v), with a pH of 7.4 (adjusted with NaOH).
# The membrane current of the isolated olfactory cells was recorded through the whole-cell recording method, while the membrane potential was fixed (Kawai et al., J. Gen. Physiol. (1997), vol. 109: 265-272). The electrode employed was produced from borosilicate glass capillary (diameter: 1.2 mm) by means of a puller for electrode fabrication (PP-830, product of Narishige Scientific Instruments). […] Then, an electrode solution was added in the electrode, and an Ag—AgCl wire was inserted into the electrode. The Ag—AgCl wire was connected to a patch-clamp amplifier (Axopatch 1D, 200B, product of Axon Instrument), whereby fixation of the membrane potential and depolarization stimulation were performed. The employed electrode solution had the following composition: KCl 120 mM, HEPES 2 mM, and Phenol Red 0.001% (w/v), with a pH of 7.4 (adjusted with KOH). The membrane current was recorded by a computer which was connected by the mediation of the patch-clamp amplifier and an A/D converter (Digidata 1320, product of Axon Instrument). Each test substance was sprayed to the cells for stimulation, by means of a pressure-controller. The pressure controller is an apparatus which reduces the pressure of compressed air supplied by means of an air-compressor to a specific value under computer-controlled conditions and which feeds the compressed air for a predetermined period of time to a tail of the glass pipette in which the test substance has been charged (Ito et al., The Japanese Journal of Physiology, 1995, vol. 57, 127-133).
# In order to investigate the effect of the test substance on the voltage-dependent cation channel activity, the membrane potential of the isolated olfactory cells was fixed to −100 mV, and depolarized to −20 mV for 20 ms at intervals of 200 ms. The peak amplitude of the inward current elicited immediately after depolarization was measured. Each of the test substances shown in Table 1 (1 μL) was mixed with the normal Ringer's solution (1 mL). Under continuous depolarization stimulation, the mixture was sprayed toward the olfactory cells (720 ms, at 50 kPa) through a glass pipette (tip diameter: 1 μm) that was placed such that the tip of the pipette was located in the vicinity ([…]) of the olfactory cells to add the mixture to the olfactory cells, and the change in inward current was monitored. Stimulation of one olfactory cell by the test substance was performed three times, and the three inward currents obtained from the cell were averaged. Each test substance was tested by three olfactory cells, and the three inward currents obtained from the cells were averaged. During the test, in very rare cases, the olfactory receptor responded to stimulation by the test substance, and inward current attributed to a CNG channel was observed. However, such cases were eliminated for evaluation. One conceivable reason for occurrence of such a case is that the test substance acts as an […] to the olfactory receptor on the olfactory cell employed in the test. CNG channel current is readily distinguishable from voltage-dependent channel current in terms of amplitude, peak shape, and duration. […]
# [3] = test substance 1 μL in 1 mL normal Ringer's solution, sprayed 720 ms at 50 kPa, depolarized from −100 mV to −20 mV, (1−b/a)×100, average of three cells
# [4] = values calculated in the experiments of Example 1, repeated in Table 3
Structure (SMILES),Masking score [1],"Percent inward current inhibition [2, 3] [%]","Percent inward current inhibition [2, 4] [%]"
O=C(OCc1ccccc1)c1ccccc1 [Benzyl benzoate],1.6,10.7,10.7
CC(=O)OCCC(C)C [Isoamyl acetate],4.5,92.0,92.0
O=Cc1ccccc1 [Benzaldehyde],4.6,95.4,95.4
"CC(=CCC1CC=C(C)C1(C)C)CO (centres unmarked) [2-Methyl-4-(2,2,3-trimethyl-3-cyclopenten-1-yl)-2-buten-1-ol]",–,105.6,–
CC/C=C\CCO [cis-3-Hexenol],4.5,78.7,78.7
OCCc1ccccc1 [β-Phenylethyl alcohol],2.9,82.6,82.6
CCOC(=O)C(C)C1CCCCC1 (centres unmarked) [Ethyl 2-cyclohexylpropionate],3.0,48.7,48.7
C=CC(C)(O)CCC=C(C)C (centres unmarked) [Linalool],4.1,106.5,106.5
CC(C)(O)CCCC1=CCC(C=O)CC1 (centres unmarked) [4-(4-Hydroxy-4-methylpentyl)-3-cyclohexene-1-carboxaldehyde],1.7,35.7,35.7
CCCCCC1C(=O)CCC1CC(=O)OC (centres unmarked) [Methyl dihydrojasmonate],–,107.1,–
CCCCCCCCC=O [n-Nonanal],–,107.4,–
CC(=O)OC1CCCCC1C(C)(C)C (centres unmarked) [o-tert-Butylcyclohexyl acetate],1.8,23.8,23.8
COc1ccc(C=O)cc1 [Anisaldehyde],3.9,89.3,89.3
"CC12CCC(CC1)C(C)(C)O2 [1,8-Cineole]",3.6,46.5,46.5
C/C=C/C(=O)C1=C(C)CCCC1(C)C [β-Damascone],2.4,56.1,56.1
C=CCc1ccc(O)c(OC)c1 [Eugenol],–,105.0,–
"CCOC(=O)C12CCCC1C1CCC2C1 (centres unmarked) [Ethyltricyclo[5.2.1.0^2,6]decane-2-carboxylate]",1.9,11.6,11.6
C=CC(C)(CCC=C(C)C)OC(C)=O (centres unmarked) [Linalyl acetate],3.0,43.3,43.3
CC(=O)OCc1ccccc1 [Benzyl acetate],–,110.8,–
C=CC(C)CCCC(C)(C)O (centres unmarked) [Dihydromyrcenol],4.8,109.0,109.0
"CC1=CC(C)C(C=O)CC1 (centres unmarked) [2,4-Dimethyl-3-cyclohexene-1-carboxaldehyde]",4.5,79.9,79.9
CC(C)=CCCC(C)=CC=O [Citral],3.9,110.6,110.6
CCOC(=O)C(C)CC (centres unmarked) [Ethyl 2-methylbutyrate],–,42.0,–
CC(C)=CCC/C(C)=C/CO [Geraniol],3.9,90.1,90.1
CC(C=O)Cc1ccc(C(C)(C)C)cc1 (stereo not drawn) [p-tert-Butyl-α-methylhydrocinnamaldehyde],–,57.9,57.9
CCC(O)COC1CCCCC1C(C)(C)C (centres unmarked) [1-(2-tert-Butylcyclohexyloxy)-2-butanol],1.7,27.1,27.1
